Data published in ChEMBL document CHEMBL4387740, “Discovery of ABT-957: 1-Benzyl-5-oxopyrrolidine-2-carboxamides as selective calpain inhibitors with enhanced metabolic stability” (Bioorg Med Chem Lett, 2019).
Values belong to the compound of their own block, whether it stands above or below them. Calls of active or inactive are those of the source. No cut-off for these calls is given here.

Columns and labels:
[1] = Intrinsic clearance in rat liver microsomes; format: ADME, Microsome; conditions: read-out: CLH
[2] = Plasma clearance in CD-1 mouse at 2 mg/kg, iv; format: ADME, organism-based
[3] = Cmax in Sprague-Dawley rat at 2 mg/kg, po; format: ADME, organism-based; set-up: dose 2 mg/kg, route oral; conditions: in vivo
[4] = Apparent permeability in human Caco2 cells; format: ADME, cell-based; conditions: Caco-2, read-out: permeability
Hippocampus [5] = test: Inhibition of amyloid beta oligomer-induced reduction of synaptic transmission in rat hippocampal slices assessed as increase in glutamatergic synaptic strength at 100 nM; format: functional, tissue-based
[6] = AUC (0 to infinity) in cynomolgus monkey at 3 mg/kg, po; format: ADME, organism-based, Macaca fascicularis; set-up: dose 3 mg/kg, time infinity, route oral; conditions: in vivo
[7] = Volume of distribution at steady state in CD-1 mouse at 2 mg/kg, iv; format: ADME, organism-based; conditions: in vivo, read-out: Vdss
[8] = Oral bioavailability in cynomolgus monkey at 3 mg/kg; format: ADME, organism-based, Macaca fascicularis; conditions: in vivo
[9] = Cmax in CD-1 mouse at 2 mg/kg, po; format: ADME, organism-based; set-up: dose 2 mg/kg, route oral; conditions: in vivo
[10] = AUC (0 to infinity) in Beagle dog at 1 mg/kg, po; format: ADME, organism-based, Canis lupus familiaris; set-up: dose 1 mg/kg, time infinity, route oral; conditions: in vivo
[11] = biological target: T1, Calpain-1 catalytic subunit (Homo sapiens, UniProt P07384); test: Inhibition of Cal1 (unknown origin)
T1 sequence (P07384 whole entry): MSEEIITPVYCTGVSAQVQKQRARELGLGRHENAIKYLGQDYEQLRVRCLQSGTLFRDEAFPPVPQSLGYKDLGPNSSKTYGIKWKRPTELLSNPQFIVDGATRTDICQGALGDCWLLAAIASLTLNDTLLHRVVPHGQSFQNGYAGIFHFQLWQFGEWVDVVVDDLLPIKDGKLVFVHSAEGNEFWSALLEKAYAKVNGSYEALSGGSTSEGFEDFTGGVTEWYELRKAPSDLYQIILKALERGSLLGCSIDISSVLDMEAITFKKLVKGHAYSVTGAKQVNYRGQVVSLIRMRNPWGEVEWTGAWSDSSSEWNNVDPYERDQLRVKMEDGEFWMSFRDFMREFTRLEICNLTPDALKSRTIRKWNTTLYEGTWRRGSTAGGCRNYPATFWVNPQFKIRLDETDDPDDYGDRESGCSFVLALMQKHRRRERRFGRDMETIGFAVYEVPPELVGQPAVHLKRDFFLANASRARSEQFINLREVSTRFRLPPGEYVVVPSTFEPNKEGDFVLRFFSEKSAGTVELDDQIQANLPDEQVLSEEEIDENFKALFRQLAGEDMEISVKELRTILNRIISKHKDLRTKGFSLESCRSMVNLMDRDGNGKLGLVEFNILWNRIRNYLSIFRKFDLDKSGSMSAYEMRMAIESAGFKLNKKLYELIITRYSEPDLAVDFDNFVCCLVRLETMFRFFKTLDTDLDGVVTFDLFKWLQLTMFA

[12] = Metabolic stability in cynomolgus monkey liver cytosol assessed as hydroxyamide metabolite formation; format: ADME, subcellular, Macaca fascicularis
[13] = AUC (0 to infinity) in Beagle dog at 1 mg/kg, iv; format: ADME, organism-based, Canis lupus familiaris; set-up: dose 1 mg/kg, time infinity, route intravenous; conditions: in vivo
[14] = Elimination half life in CD-1 mouse at 2 mg/kg, po; format: ADME, organism-based; conditions: in vivo, read-out: beta t1/2 (converted)
BCRP (ABCG2) = biological target: T2, BCRP (ABCG2) (Homo sapiens, UniProt Q9UNQ0); test: Substrate activity at BCRP (unknown origin) expressed in MDCK2 cells assessed as efflux ratio of permeability across basolateral to apical over apical to basolateral side; format: ADME, cell-based
T2 sequence (Q9UNQ0 whole entry): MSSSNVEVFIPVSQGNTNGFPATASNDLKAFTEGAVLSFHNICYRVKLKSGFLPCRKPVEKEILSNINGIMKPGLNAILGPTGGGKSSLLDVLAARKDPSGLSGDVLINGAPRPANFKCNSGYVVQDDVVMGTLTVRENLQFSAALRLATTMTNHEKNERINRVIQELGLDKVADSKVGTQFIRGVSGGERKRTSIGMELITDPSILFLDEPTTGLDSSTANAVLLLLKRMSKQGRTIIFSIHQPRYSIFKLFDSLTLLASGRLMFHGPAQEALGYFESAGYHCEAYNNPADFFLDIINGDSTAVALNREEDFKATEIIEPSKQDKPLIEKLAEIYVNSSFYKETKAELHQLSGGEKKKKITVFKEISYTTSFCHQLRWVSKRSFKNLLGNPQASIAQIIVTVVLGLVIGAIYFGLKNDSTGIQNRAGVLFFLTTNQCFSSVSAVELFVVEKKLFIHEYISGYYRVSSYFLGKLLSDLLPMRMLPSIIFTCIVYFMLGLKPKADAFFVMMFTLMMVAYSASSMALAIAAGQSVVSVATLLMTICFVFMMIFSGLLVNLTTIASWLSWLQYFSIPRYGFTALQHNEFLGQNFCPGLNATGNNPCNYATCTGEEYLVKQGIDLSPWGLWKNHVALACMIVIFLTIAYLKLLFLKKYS

[15] = Selectivity ratio, ratio of Ki for CatS (unknown origin) to Ki for Cal1 (unknown origin); conditions: Homo sapiens
[16] = Metabolic stability in cynomolgus monkey liver microsomes; format: ADME, Macaca fascicularis, Microsome
[17] = Metabolic stability in human liver microsomes; format: ADME, Microsome
[18] = Elimination half life in Sprague-Dawley rat at 2 mg/kg, po; format: ADME, organism-based; conditions: in vivo, read-out: beta t1/2 (converted)
[19] = Metabolic stability in dog liver microsomes; format: ADME, Canis lupus familiaris, Microsome
[20] = Metabolic stability in dog hepatocytes; format: ADME, cell-based, Canis lupus familiaris, Hepatocyte
[21] = Plasma clearance in Beagle dog at 1 mg/kg, iv; format: ADME, organism-based, Canis lupus familiaris
[22] = Cmax in Beagle dog at 1 mg/kg, po; format: ADME, organism-based, Canis lupus familiaris; set-up: dose 1 mg/kg, route oral; conditions: in vivo
[23] = Elimination half life in Beagle dog at 1 mg/kg, po; format: ADME, organism-based, Canis lupus familiaris; conditions: in vivo, read-out: beta t1/2 (converted)
[24] = Elimination half life in cynomolgus monkey at 3 mg/kg, po; format: ADME, organism-based, Macaca fascicularis; conditions: in vivo, read-out: beta t1/2 (converted)
[25] = Oral bioavailability in Sprague-Dawley rat at 2 mg/kg; format: ADME, organism-based; conditions: in vivo
[26] = Metabolic stability in human hepatocytes; format: ADME, cell-based, Hepatocyte
[27] = AUC (0 to infinity) in CD-1 mouse at 2 mg/kg, po; format: ADME, organism-based; set-up: dose 2 mg/kg, route oral, time infinity; conditions: in vivo
[28] = Oral bioavailability in CD-1 mouse at 2 mg/kg; format: ADME, organism-based; conditions: in vivo
[29] = AUC (0 to infinity) in Sprague-Dawley rat at 2 mg/kg, iv; format: ADME, organism-based; set-up: dose 2 mg/kg, time infinity, route intravenous; conditions: in vivo
[30] = AUC (0 to infinity) in cynomolgus monkey at 1 mg/kg, iv; format: ADME, organism-based, Macaca fascicularis; set-up: dose 1 mg/kg, time infinity, route intravenous; conditions: in vivo
[31] = Volume of distribution at steady state in Sprague-Dawley rat at 2 mg/kg, iv; format: ADME, organism-based; conditions: in vivo, read-out: Vdss
[32] = Elimination half life in cynomolgus monkey at 1 mg/kg, iv; format: ADME, organism-based, Macaca fascicularis; conditions: in vivo, read-out: beta t1/2 (converted)
[33] = Intrinsic clearance in human liver microsomes; format: ADME, Microsome; conditions: read-out: CLH
[34] = Metabolic stability in cynomolgus monkey hepatocytes; format: ADME, cell-based, Macaca fascicularis, Hepatocyte
[35] = Elimination half life in Beagle dog at 1 mg/kg, iv; format: ADME, organism-based, Canis lupus familiaris; conditions: in vivo, read-out: beta t1/2 (converted)
[36] = Cmax in cynomolgus monkey at 3 mg/kg, po; format: ADME, organism-based, Macaca fascicularis; set-up: dose 3 mg/kg, route oral; conditions: in vivo
[37] = Plasma clearance in cynomolgus monkey at 1 mg/kg, iv; format: ADME, organism-based, Macaca fascicularis
[38] = Volume of distribution at steady state in cynomolgus monkey at 1 mg/kg, iv; format: ADME, organism-based, Macaca fascicularis; conditions: in vivo, read-out: Vdss
P-gp (ABCB1) = P-gp (ABCB1) (Homo sapiens, UniProt P08183); test: Substrate activity at P-gp (unknown origin) expressed in MDCK2 cells assessed as efflux ratio of permeability across basolateral to apical over apical to basolateral side; format: ADME, cell-based; conditions: MDCK-MDR1
Chain of P-gp (ABCB1) (P08183 whole entry): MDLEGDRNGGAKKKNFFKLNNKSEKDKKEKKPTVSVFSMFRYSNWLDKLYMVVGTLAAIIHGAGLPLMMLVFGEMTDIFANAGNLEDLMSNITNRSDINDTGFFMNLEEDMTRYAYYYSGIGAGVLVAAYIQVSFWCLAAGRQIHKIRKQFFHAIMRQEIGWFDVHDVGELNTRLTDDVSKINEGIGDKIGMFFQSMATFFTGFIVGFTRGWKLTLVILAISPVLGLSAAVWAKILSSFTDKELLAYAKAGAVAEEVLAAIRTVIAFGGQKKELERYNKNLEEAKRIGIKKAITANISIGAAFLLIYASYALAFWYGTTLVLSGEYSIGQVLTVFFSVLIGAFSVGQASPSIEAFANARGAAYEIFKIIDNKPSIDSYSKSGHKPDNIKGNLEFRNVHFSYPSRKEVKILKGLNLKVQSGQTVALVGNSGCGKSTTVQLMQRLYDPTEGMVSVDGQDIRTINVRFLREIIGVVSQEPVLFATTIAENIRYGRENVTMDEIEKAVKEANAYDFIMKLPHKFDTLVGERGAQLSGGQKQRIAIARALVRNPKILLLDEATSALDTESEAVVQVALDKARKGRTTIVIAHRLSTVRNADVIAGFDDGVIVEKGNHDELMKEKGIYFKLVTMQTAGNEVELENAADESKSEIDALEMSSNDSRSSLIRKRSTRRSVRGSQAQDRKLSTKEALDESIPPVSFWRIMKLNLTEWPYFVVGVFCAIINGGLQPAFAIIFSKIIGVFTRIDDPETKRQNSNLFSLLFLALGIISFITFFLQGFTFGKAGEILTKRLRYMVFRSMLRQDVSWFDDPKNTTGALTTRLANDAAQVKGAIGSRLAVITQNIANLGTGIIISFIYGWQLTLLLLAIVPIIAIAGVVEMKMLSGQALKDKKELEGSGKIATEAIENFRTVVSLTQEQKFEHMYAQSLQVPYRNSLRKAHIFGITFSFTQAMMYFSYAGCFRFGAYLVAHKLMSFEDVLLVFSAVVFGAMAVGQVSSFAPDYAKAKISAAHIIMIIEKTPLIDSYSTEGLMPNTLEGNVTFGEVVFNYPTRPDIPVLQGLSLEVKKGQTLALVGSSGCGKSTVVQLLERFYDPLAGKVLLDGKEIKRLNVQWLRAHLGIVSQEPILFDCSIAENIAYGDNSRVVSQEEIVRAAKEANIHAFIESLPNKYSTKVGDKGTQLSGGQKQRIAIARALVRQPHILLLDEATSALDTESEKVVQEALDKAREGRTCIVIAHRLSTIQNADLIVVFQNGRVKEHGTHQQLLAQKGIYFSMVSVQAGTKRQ

Homo sapiens [39] = organism: Homo sapiens; test: Selectivity ratio, ratio of Ki for CatB (unknown origin) to Ki for Cal1 (unknown origin)
[40] = Volume of distribution at steady state in Beagle dog at 1 mg/kg, iv; format: ADME, organism-based, Canis lupus familiaris; conditions: in vivo, read-out: Vdss
Homo sapiens [41] = organism: Homo sapiens; test: Selectivity ratio, ratio of Ki for CatK (unknown origin) to Ki for Cal1 (unknown origin)
[42] = Elimination half life in Sprague-Dawley rat at 2 mg/kg, iv; format: ADME, organism-based; conditions: in vivo, read-out: beta t1/2 (converted)
Hippocampus [43] = test: Inhibition of NMDA-induced spectrin degradation in rat hippocampal slices; format: functional, tissue-based
[44] = Metabolic stability in human liver cytosol assessed as hydroxyamide metabolite formation; format: ADME, subcellular
[45] = AUC (0 to infinity) in CD-1 mouse at 2 mg/kg, iv; format: ADME, organism-based; set-up: dose 2 mg/kg, route intravenous, time infinity; conditions: in vivo
[46] = Intrinsic clearance in rat liver microsomes; conditions: read-out: CLH
[47] = Oral bioavailability in Beagle dog at 1 mg/kg; format: ADME, organism-based, Canis lupus familiaris; conditions: in vivo
[48] = Fraction unbound in human plasma; format: ADME, cell-free
[49] = Metabolic stability in rat hepatocytes; format: ADME, cell-based, Hepatocyte
[50] = AUC (0 to infinity) in Sprague-Dawley rat at 2 mg/kg, po; format: ADME, organism-based; set-up: dose 2 mg/kg, time infinity, route oral; conditions: in vivo
[51] = Plasma clearance in Sprague-Dawley rat at 2 mg/kg, iv; format: ADME, organism-based
[52] = Intrinsic clearance in human liver cytosol; format: ADME, subcellular; conditions: read-out: CLH
[53] = Elimination half life in CD-1 mouse at 2 mg/kg, iv; format: ADME, organism-based; conditions: in vivo, read-out: beta t1/2 (converted)
Homo sapiens [54] = organism: Homo sapiens; test: Selectivity ratio, ratio of Ki for CatL (unknown origin) to Ki for Cal1 (unknown origin)
[55] = Metabolic stability in rat liver microsomes; format: ADME, Microsome
[56] = Intrinsic clearance in cynomolgus monkey liver cytosol; format: ADME, subcellular, Macaca fascicularis; conditions: read-out: CLH
[57] = Oral bioavailability in rat; format: ADME, organism-based; conditions: in vivo

microsomal CLint [1]: < 23 µL/min/mg
clearance [2]: 2.17 mL/min/kg
Cmax [3]: 530 ng/mL
Papp [4]: 9.4 ×10⁻⁶ cm/s
AUC(0-inf) [6]: 220 ng·h/mL
Vd [7]: 1 L/kg
bioavailability [8]: 14.3%
Cmax [9]: 2300 ng/mL
AUC(0-inf) [10]: 1510 ng·h/mL
Ki [11]: 0.13 µM
Stability [12]: Stable
AUC(0-inf) [13]: 1820 ng·h/mL
half-life [14]: 5 h
efflux ratio (BCRP (ABCG2)): 0.9
Selectivity ratio [15]: > 100
Stability [16]: Stable
Stability [17]: Stable
half-life [18]: 5.1 h
Stability [19]: Stable
Stability [20]: Stable
clearance [21]: 10.2 mL/min/kg
Cmax [22]: 980 ng/mL
half-life [23]: 4.8 h
half-life [24]: 1.3 h
bioavailability [25]: 99.6%
Stability [26]: Stable
AUC(0-inf) [27]: 14500 ng·h/mL
bioavailability [28]: 93.5%
AUC(0-inf) [29]: 1930 ng·h/mL
AUC(0-inf) [30]: 510 ng·h/mL
Vd [31]: 3.4 L/kg
half-life [32]: 2.3 h
microsomal CLint [33]: 28 µL/min/mg
Stability [34]: Stable
half-life [35]: 1.7 h
Cmax [36]: 98 ng/mL
clearance [37]: 33 mL/min/kg
Vd [38]: 1.8 L/kg
efflux ratio (P-gp (ABCB1)): 10.5
Selectivity ratio (Homo sapiens [39]): 42
Vd [40]: 0.6 L/kg
Selectivity ratio (Homo sapiens [41]): 74
half-life [42]: 6.6 h
IC50 (Hippocampus [43]): 0.385 µM
Stability [44]: Stable
AUC(0-inf) [45]: 15400 ng·h/mL
microsomal CLint [46]: < 23 µL/min/mg
bioavailability [47]: 83.1%
fraction unbound [48]: 0.3
Stability [49]: Stable
AUC(0-inf) [50]: 1910 ng·h/mL
clearance [51]: 17.3 mL/min/kg
microsomal CLint [52]: < 1 µL/min/mg
half-life [53]: 6 h
Selectivity ratio (Homo sapiens [54]): 42
Stability [55]: Stable
SMILES: O=C(NC1CC1)C(=O)C(Cc1ccccc1)NC(=O)[C@H]1CCC(=O)N1Cc1ccccc1 (some centres not stated)
inhibition (Hippocampus [5]): Active

microsomal CLint [1]: < 23 µL/min/mg
microsomal CLint [56]: 185 µL/min/mg
Ki [11]: 0.039 µM
Selectivity ratio [15]: 103
bioavailability [57]: 45%
microsomal CLint [33]: 27 µL/min/mg
Selectivity ratio (Homo sapiens [39]): 23
Selectivity ratio (Homo sapiens [41]): 22
microsomal CLint [52]: > 70 µL/min/mg
Selectivity ratio (Homo sapiens [54]): 15
SMILES: NC(=O)C(=O)C(Cc1ccccc1)NC(=O)[C@H]1CCC(=O)N1Cc1ccccc1 (mixture of isomers)
